Patent US20260014278A1, “HYBRID PEPTIDE DENDRIMER SYSTEMS AND EXTRAHEPATIC DELIVERY” (NUNTIUS THERAPEUTICS LIMITED, priority 2022, published 2026)

What was measured:
[1] = tested on: Mouse muscle cells (C2c12); test: eGFP expression (RFU/mg) in C2c12 muscle cells, muscle-targeting dendrimers; format: cell-based; conditions: N:P=0.6:1, DOTMA:DOPE w/w 10:1, 24 hours post-transfection; FIG. 9
Protocol: Cell lines, transfection reagents and mRNA. C2c12 cells were maintained in DMEM medium with 10% (v/v) FCS and 1% (v/v) L-glutamine in a humidified atmosphere in 5% CO2, and 37° C. The Alexa Fluor 488 tagged mRNA, expressing an eGFP, was purchased from RiboPro. The mRNA either expressing an eGFP or firefly luciferase was purchased from Trilink. DOTMA:DOPE, 1:1 (w/w) were obtained from Invitrogen or Encapsula NanoSciences LLC.
Transfection procedure. 24 hours before transfection, C2c12 cells were seeded in 96well plates in order to reach 70% confluence. mRNA transfection complexes were formed by mixing mRNA with the dendrimers in 25 mM HEPES buffer, then with DOTMA:DOPE in 25 mM HEPES buffer at 25° C. The transfection complexes were then overlaid to the cells in full growth medium. The cells were harvested 4 hours after transfection for FACS analysis or 24 hours post transfection for reporter genes assays.
Two variants (NTX2 and NTX3) of the peptide dendrimer GSCG1,2-RL, 3-LR ((LR)8(KRL)4(KRL)2KGSC-NH2) were made which include the ASSLNIA (SEQ ID NO:1) muscle targeting peptide. Transfection of muscle cells with GSCG1,2-RL, 3-LR, NTX2 ((LR)8(KRL)4(KRL)2[…](Acp)-NH2) or NTX3 ((LR)8(KRL)4(KRL)2[…](Acp)-NH2) was performed using eGFP mRNA and transfection efficiency was assayed using either flow cytometry or the transgene expression assay. […]
Transgene expression assay: The cells were washed twice with PBS and incubated with 50 ul of 1× M-PER lysis buffer (Thermo 11874111). […] 40 ul of lysate from each well was transferred to all black 96 well plates for quantification of eGFP relative fluorescence unit (RFU), absorbance at 535 nm, using Molecular devices SpectraMax iD5.
Protein content determination: The protein content of each cell lysate was determined by mixing the lysate (25 μL) with Pierce™ BCA Protein Assay Kit (200 ul, Thermo Scientific). After 30 minutes of 37° C. incubation in at dark, absorbance was measured at 562 nm with Molecular devices SpectraMax iD5 and converted to protein concentration using a BSA standard curve. […]

C2c12 muscle cells = test: Uptake of Alexa488 labelled mRNA in C2c12 cells, flow cytometry; format: cell-based, mouse; conditions: NTX3 N:P=0.6:1, DOTMA:DOPE w/w 10:1, 4 hours; FIG. 18
Protocol: FIG. 18. […] Labelled mRNA delivery to cells. Mouse muscle cells (C2c12) took up mRNA labelled with an Alexa488 fluorophore following transfection. The cells were transfected with labelled mRNA alone, labelled mRNA with NTX3 (N:P=0.6:1) and DOTMA:DOPE for 4 hours, and the uptake of the mRNA was measured by flow cytometry. NTX3 is GSCG1,2-RL, 3-LR linked with a muscle cell targeting peptide with 6 histidines. DOTMA:DOPE was used at w/w=10:1 to mRNA.
C2c12 cells were maintained in DMEM medium with 10% (v/v) FCS and 1% (v/v) L-glutamine in a humidified atmosphere in 5% CO2 and 37° C. The Alexa Fluor 488 tagged mRNA, expressing an eGFP, was purchased from RiboPro. 24 hours before transfection, C2c12 cells were seeded in 96 well plates in order to reach 70% confluence. mRNA transfection complexes were formed by mixing mRNA with the dendrimers in 25 mM HEPES buffer, then with DOTMA:DOPE (1:1 w/w) in 25 mM HEPES buffer at 25° C. The transfection complexes (“NTX3”) were then overlaid to the cells in full growth medium. The cells were harvested for FACS analysis 4 hours after transfection. Cells medium and PBS used to wash each well, was collected from each treatment before the addition of […] EDTA in PBS. After 10 minutes of incubation at 37° C., the cells were gently detached from the plates and pelleted down at 400 g for 8 minutes, 4° C. […] Collected data were analysed using FlowJo 10.0 software.

[2] = tested on: mouse muscle cells (C2c12 cells); test: eGFP expression in undifferentiated C2c12 cells, coat with or without muscle targeting domain; format: cell-based; conditions: GSCG1,2-RHL N:P=0.6:1, DOTMA/DOPE w/w 10:1, same mole equivalent of coat, 24 hours; FIG. 26
Source text: Nanocarrier comprising GSCG1,2-RHL (N:P=0.6:1 to mRNA) with DOTMA/DOPE (w/w=10:1 to mRNA) and mRNA was firstly prepared as described. The nanoparticles were then coated with a dendrimer with a muscle targeting domain, the muscle-G1-EEEE (Ac-EEEE)2[…]-(Acp)-NH2), at different mRNA:coating mole ratios, between 0.5:1 to 5:1, preferably around 2.74:1. As a control, the nanoparticles were coated with a dendrimer without a muscle targeting domain, the G1-EEEE, at different mRNA:coating mole ratios, between 0.5:1 to 5:1, preferably around 2.74:1.
In a first experiment, mouse muscle cells (C2c12 cells) were transfected with formulations comprising mRNA expressing eGFP. The formulations used were comprising GSCG1,2-RHL (N:P=0.6:1 to mRNA) with DOTMA/DOPE (w/w=10:1 to mRNA) and mRNA, and coated with either the same equivalent of mole of dendritic PGA with or without the muscle targeting domain. The cells were harvested 24 hours post-transfection. Control: Cells were not transfected with mRNA. The dendrimer with the muscle targeting domain was (Ac-EEEE)2[…]-(Acp)-NH2 (named “muscle-G1-EEEE”. ASSLNIA, SEQ ID NO:1, is the muscle targeting motif). The dendrimer without the muscle targeting domain was (Ac-EEEE)2[…]-NH2 (“[…]1-EEEE”).

[3] = tested on: differentiated mouse muscle cells (C2c12 cells); test: eGFP expression in differentiated C2c12 cells, coat with or without muscle targeting domain; format: cell-based
Protocol: In a second experiment, differentiated mouse muscle cells (C2c12 cells) were transfected with formulations comprising mRNA expressing eGFP. The muscle cells were differentiated as follows: C2c12 cells were seeded and allowed to grow to confluence in a growth medium. Once the cells were confluent, the medium on the cells was replaced with a differentiation medium for 2 days to allow the cells to develop myotube characteristics. The differentiation medium was replaced with the growth medium 30 mins before transfection. The cells were transfected for 24 hours with nanocarriers indicated in FIG. 27 and harvested to assay the eGFP reporter gene expression using a plate reader. The mRNA used expressed eGFP. The growth medium contained high glucose DMEM (Gibco), 10% FBS (Gibco), 2 mM L-glutamine (Gibco). The differentiated medium contained high glucose DMEM (Gibco), 2% horse serum (Gibco), 2 mM L-glutamine (Gibco), 1 uM insulin.
As in the first experiment, the formulations used were comprising GSCG1,2-RHL (N:P=0.6:1 to mRNA) with DOTMA/DOPE (w/w=10:1 to mRNA) and mRNA, and coated with either the same equivalent of mole of dendritic PGA with or without the muscle targeting domain. The cells were harvested 24 hours post-transfection. Control: Cells were not transfected with mRNA or transfected with mRNA alone. The dendrimer with the muscle targeting domain was muscle-G1-EEEE. […]

[4] = Zeta potential of nanoparticles (electrophoretic light scattering); format: physicochemical
Source text: Zeta potential is a measurement of the magnitude of the electrostatic or charge repulsion/attraction between particles. This can be determined by analysing particle mobility and charge (Zeta potential) using the Electrophoretic Light Scattering (ELS) technique.
Zeta potential is a measurement of the magnitude of the electrostatic or charge repulsion/attraction between particles. This can be determined by analysing particle mobility and charge (Zeta potential) using the Electrophoretic Light Scattering (ELS) technique. […] Parameters: reference material: polystyrene latex, dispersant: water, 25° C. The measurements of the zeta potential were carried out using the Zetasizer Advance Series—Pro (Malvern Panalytical Ltd, Malvern, UK) according to the manufacturer's instructions.

[5] = Dynamic light scattering: hydrodynamic size and polydispersity index (PDI) of nanoparticles; format: physicochemical
Procedure, shortened: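 Hydrodynamic size measured by DLS (Stokes-Einstein), PDI from cumulants fit per ISO 13321/22412. Samples diluted 16× in 25 mM HEPES, water as dispersant, 25° C; PDI measured on dendrimer:nucleic acid 8:1 nanoparticles.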

[6] = GSCG1,2-RHL N:P 0.6:1, DOTMA/DOPE nanoparticles coated at 2.06:1 (dendrimer to mRNA)
[7] = GSCG1,2-RHL N:P 0.6:1, DOTMA/DOPE nanoparticles coated at 2.72:1 (dendrimer to mRNA)

| zeta potential [4, 6] [mV] | zeta potential [4, 7] [mV] | PDI [5, 6] | size [5, 6] [nm] | PDI [5, 7] | size [5, 7] [nm] | Substance | increase in eGFP expression compared to GSCG1,2-RL, 3-LR [1] | cells successfully transfected (uptake of Alexa488 labelled mRNA) (C2c12 muscle cells) | eGFP expression versus coat without muscle targeting domain [2] | eGFP expression versus coat without muscle targeting domain ([3]; GSCG1,2-RHL N:P=0.6:1, DOTMA/DOPE w/w 10:1, same mole equivalent of coat, 24 hours, FIG. 27) | mRNA transfection versus nanoparticles coated with dendrimer without the targeting domain ([3]; coat mole ratio 2.72:1 and 2.06:1 (dendrimer to mRNA)) |
| --- | --- | --- | --- | --- | --- | --- | --- | --- | --- | --- | --- |
| – | – | – | – | – | – | (LR)8(KRL)4(KRL)2KGSCHHHHHHGAASSLNIA(Acp)-NH2 [NTX3] | three-fold | approximately 100% | – | – | – |
| ~38.7 | ~44.0 | 0.15 | 176 | 0.14 | 172 | (Ac-EEEE)2KGSCGAASSLNIA-(Acp)-NH2) [muscle-G1-EEEE] | – | – | dramatic increase in eGFP expression | dramatic increase in eGFP expression | improved mRNA transfection |
